Experiments:
Assay type in all cases: cell-based
IL-17A = experiment: IL-17 release from differentiated primary human T-cells (IL-17A HTRF assay); conditions: primary human CD4+ T cells differentiated into Th17 cells, 45-hour incubation, IL-17A in supernatant; read-out: hIL17 IC50
In short: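 Primary human CD4+ T cells (~2×10^5/well) given compound (2–500 or 4–1000 nM, 0.1% DMSO), CD3/CD28-activated and Th17-differentiated (TGF-β, IL-6, IL-23, IL-1β) for 45 h at 37° C. Supernatant IL-17A by HTRF against standard curve, normalized to vehicle; IC50 by variable-slope regression, with parallel CyQuant viability.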

[1] = biological target: T1, Human RAR-related Orphan Receptor Gamma (RORγ) (Homo sapiens, UniProt P51449); experiment: RORγ assay (GAL4-RORγ hybrid luciferase reporter, Indigo Biosciences); conditions: inverse-agonist activity, GAL4-RORγ reporter cells, 23 hours
T1 sequence (P51449 269-508 limits assumed): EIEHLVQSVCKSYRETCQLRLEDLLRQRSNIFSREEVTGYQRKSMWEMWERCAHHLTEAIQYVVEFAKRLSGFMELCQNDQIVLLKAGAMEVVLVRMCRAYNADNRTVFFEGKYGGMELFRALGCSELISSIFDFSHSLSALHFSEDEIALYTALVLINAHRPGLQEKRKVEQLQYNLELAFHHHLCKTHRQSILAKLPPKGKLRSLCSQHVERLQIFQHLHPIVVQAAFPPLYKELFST
In short: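 […]engineered human reporter cell line expressing GAL4-DBD/RORγ-LBD hybrid with GAL4-UAS luciferase; constitutive activity measured as inverse agonism. Cells treated with compound (7.8-2000 nM) for 23 h at 37 °C; luminescence normalized to DMSO, IC50 by variable-slope fit, with parallel viability readout to flag non-specific inhibition.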

[2] = tested on: Nrf2 transcription factor; experiment: AREc32 luciferase reporter assay; conditions: Homo sapiens; AREc32 cells, 19 hours; concentration required to increase GST ARE luciferase reporter activity by 2-fold; read-out: NRF2 ARE 2-Fold (EC2×)
In short: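 AREc32 cells (MCF-7 with firefly luciferase under eight rat GSTA2 ARE copies) treated 19 h with compound (0.4-200 nM or 3.9-2000 nM) in triplicate. Luminescence normalized to DMSO as fold-induction, capped at 50-fold. EC2× = concentration giving 2-fold reporter increase, interpolated from variable-slope fit.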

IC50 (IL-17A) [nM] | IC50 [1] [nM] | SMILES | EC (2-fold) [2] [µM]
131 | 188 | C[C@H]1C(=O)C(C#N)=C[C@@]2(C)c3nc(-c4ccc(-c5ccccc5)cc4)n(-c4cccnc4)c3CC[C@H]12 [T152] | 1.16
108 | 334 | CC(C)c1ccc(-c2nc3c(n2-c2cccnc2)CC[C@@H]2[C@@H](C)C(=O)C(C#N)=C[C@@]32C)cc1 [T153] | 1.25
415 | 572 | C[C@H]1C(=O)C(C#N)=C[C@@]2(C)c3nc(-c4ccnc5ccccc45)n(-c4cccnc4)c3CC[C@H]12 [T154] | 1.97
161 | 201 | C[C@H]1C(=O)C(C#N)=C[C@@]2(C)c3nc(-c4cccc(-c5ccccc5)c4)n(-c4cccnc4)c3CC[C@H]12 [T155] | 0.738
128 | 117 | CC(C)c1ccc(-c2nc3c(n2-c2cnn(C)c2)CC[C@@H]2[C@@H](C)C(=O)C(C#N)=C[C@@]32C)cc1 [T156] | 1.16
322 | 103 | C[C@H]1C(=O)C(C#N)=C[C@@]2(C)c3nc(-c4cccc(Cl)c4)n(-c4cnn(C)c4)c3CC[C@H]12 [T157] | 1.28
240 | 124 | C[C@H]1C(=O)C(C#N)=C[C@@]2(C)c3nc(-c4ccc(Cl)c(Cl)c4)n(-c4cnn(C)c4)c3CC[C@H]12 [T158] | 1.09
273 | 201 | C[C@H]1C(=O)C(C#N)=C[C@@]2(C)c3nc(-c4cccc(-c5ccncc5)c4)n(-c4cnn(C)c4)c3CC[C@H]12 [T159] | 1.08
468 | 562 | C[C@H]1C(=O)C(C#N)=C[C@@]2(C)c3nc(-c4ccnc(N5CCOCC5)c4)n(-c4cnn(C)c4)c3CC[C@H]12 [T160] | > 2
113 | 150 | CC(C)c1ccc(-c2nc3c(n2C2CC2)CC[C@@H]2[C@@H](C)C(=O)C(C#N)=C[C@@]32C)cc1 [T161] | 1.02
137 | 141 | CC(C)c1ccc(-c2nc3c(n2C(C)C)CC[C@@H]2[C@@H](C)C(=O)C(C#N)=C[C@@]32C)cc1 [T162] | 1.12
255 | 152 | CC(C)c1ccc(-c2nc3c(n2C)CC[C@@H]2[C@@H](C)C(=O)C(C#N)=C[C@@]32C)cc1 [T163] | 1.13
158 | 237 | COCCn1c(-c2ccc(C(C)C)cc2)nc2c1CC[C@@H]1[C@@H](C)C(=O)C(C#N)=C[C@@]21C [T164] | > 2
211 | 471 | CC(C)c1ccc(-c2nc3c(n2CCOCc2ccccc2)CC[C@@H]2[C@@H](C)C(=O)C(C#N)=C[C@@]32C)cc1 [T165] | > 2
63 | 228 | CC(C)c1ccc(-c2nc3c(n2Cc2ccccc2)CC[C@@H]2[C@@H](C)C(=O)C(C#N)=C[C@@]32C)cc1 [T166] | 1.68
53 | 245 | CC(C)c1ccc(-c2nc3c(n2Cc2ccc(F)cc2)CC[C@@H]2[C@@H](C)C(=O)C(C#N)=C[C@@]32C)cc1 [T167] | 1.11

IC50 (IL-17A) [nM] | IC50 [1] [nM] | SMILES | EC (2-fold) [2] [µM]
43 | 296 | CC(C)c1ccc(-c2nc3c(n2Cc2ccccc2F)CC[C@@H]2[C@@H](C)C(=O)C(C#N)=C[C@@]32C)cc1 [T168] | 1.29
33 | 371 | CC(C)c1ccc(-c2nc3c(n2Cc2ccc(Cl)cc2)CC[C@@H]2[C@@H](C)C(=O)C(C#N)=C[C@@]32C)cc1 [T169] | 1.01
72 | 103 | CC(C)c1ccc(-c2nc3c(n2Cc2ccccn2)CC[C@@H]2[C@@H](C)C(=O)C(C#N)=C[C@@]32C)cc1 [T170] | 0.602
157 | 260 | CC(C)c1ccc(-c2nc3c(n2Cc2ccncc2)CC[C@@H]2[C@@H](C)C(=O)C(C#N)=C[C@@]32C)cc1 [T171] | 1.01
> 500 | 178 | CC(C)c1ccc(-c2nc3c(n2CCO)CC[C@@H]2[C@@H](C)C(=O)C(C#N)=C[C@@]32C)cc1 [T172] | > 2
119 | 1970 | CC(C)c1ccc(-c2nc3c([nH]2)CC[C@@H]2[C@@H](C)C(=O)C(C#N)=C[C@@]32C)cc1 [T173] | 0.884
368 | 1600 | CC(=O)n1c(-c2ccc(C(C)C)cc2)nc2c1CC[C@@H]1[C@@H](C)C(=O)C(C#N)=C[C@@]21C [T174] | 0.923
129 | 120 | Cc1cc(-c2ccc(-n3nc(-c4ccncn4)c4c3[C@]3(C)C=C(C#N)C(=O)[C@H](C)[C@H]3CC4)cc2)cnn1 [T176] | 0.979
9 | 52 | Cc1cc(-c2ccc(-n3nc(-c4ccc(F)cc4)c4c3[C@]3(C)C=C(C#N)C(=O)[C@H](C)[C@H]3CC4)cc2)cnn1 [T177] | 0.271
31 | 64 | C[C@H]1C(=O)C(C#N)=C[C@@]2(C)c3c(c(-c4ccc(F)cc4)nn3-c3ccc(-c4cccnn4)cc3)CC[C@H]12 [T178] | 0.342
45 | 37 | Cc1cnnc(-c2ccc(-n3nc(-c4ccc(F)cc4)c4c3[C@]3(C)C=C(C#N)C(=O)[C@H](C)[C@H]3CC4)cc2)c1 [T179] | 0.232
49 | 55 | C[C@H]1C(=O)C(C#N)=C[C@@]2(C)c3c(c(-c4cccnc4)nn3-c3ccc(-c4ccnc(CF)c4)cc3)CC[C@H]12 [T180] | 0.308
24 | 60 | C[C@H]1C(=O)C(C#N)=C[C@@]2(C)c3c(c(-c4ccc(F)cc4)nn3-c3ccc(-c4ccnc(CF)c4)cc3)CC[C@H]12 [T181] | 0.25
32 | 96 | Cc1nc(-c2ccc(-n3nc(-c4ccc(F)cc4)c4c3[C@]3(C)C=C(C#N)C(=O)[C@H](C)[C@H]3CC4)cc2)no1 [T182] | 0.249
68 | 113 | C[C@H]1C(=O)C(C#N)=C[C@@]2(C)c3c(c(-c4ccc(F)cc4)nn3-c3ccc(-c4ncon4)cc3)CC[C@H]12 [T183] | 0.526
76 | 116 | Cc1nc(-c2ccc(-n3nc(-c4cccnc4)c4c3[C@]3(C)C=C(C#N)C(=O)[C@H](C)[C@H]3CC4)cc2)no1 [T184] | 0.398

From patent publication US11993574B2, “Pyrazole and imidazole compounds for inhibition of IL-17 and RORgamma” (REATA PHARMACEUTICALS, INC., priority 2018, dated 2024)
